The record followed here is patent publication US20210269859A1, “PATHOGEN AND ANT[…]” (priority 2014, published 2021).

Each structure is given as a SMILES string. Where two headings read alike, the source gives them in different places.

Assay type in all cases: cell-based
The test system of experiment [1] is kanamycin resistant E. coli K12 MG1655 strain. As to conditions: 10 μl. On the procedure:
(§1) A single E. coli bacterial colony (E. coli K12 MG1655) known to be resistant to kanamycin and a single E. coli bacterial colony (E. coli K12 MG1655) known to be resistant to carbenicillin were separately cultured in LB media for 12-15 hrs until the bacterial cells were in mid-log phase (about 10^8 cells/nil). The culture was then serial diluted to 5×10^2, 5×10^3, 5×10^4, and 5×10^5 cells in LB media containing either 50 μg/ml kanamycin or 100 μg/ml carbenicillin. Resazurin was added to each dilution at a final concentration of 20, 40, or 80 μM in a total reaction volume of 100 μl. Each diluted culture was cultured at 37° C. and fluorescence was measured at wavelength 590 nm at 0, 1, 2, 3, 4, 5, and 6 hrs from the start of culture in the presence of the antibiotic.
The resazurin reduction method was repeated using the kanamycin resistant strain but in a 10 μl total reaction volume and with final cell concentrations of 5×10^1, 5×10^2, 5×10^3, and 5×10^4 cells per reaction. The same final resazurin concentrations (20, 40, or 80 μM), kanamycin concentration, and carbenicillin concentration were used as above. Fluorescence was measured at wavelength 590 nm at 0, 1, 2, 3, 4, 5, 6, and 7 hrs from the start of culture in the presence of the antibiotic.

Experiment [2] has the same test system. As to conditions: 100 μl. The protocol:
as §1

The test system of experiment [3] is carbenicillin resistant E. coli K12 MG1655 strain. Briefly: Resazurin reduction method, 100 μl total reaction volume. The protocol: as §1
Setting [4] is: higher initial cell concentrations (5×10^3, 5×10^4, 5×10^5 cells).
The mark [5] stands for this setting: lower initial cell concentration (5×10^2 cells).
Setting [6] is: 50 μg/ml kanamycin or 100 μg/ml carbenicillin, 5×10^2 to 5×10^5 cells, resazurin 20, 40 or 80 μM, 37° C., 0-6 hrs.

For `NC[C@H]1O[C@H](O[C@H]2[C@H](O)[C@@H](O[C@H]3O[C@H](CO)[C@@H](O)[C@H](N)[C@H]3O)[C@H](N)C[C@@H]2N)[C@H](O)[C@@H](O)[C@@H]1O` [kanamycin], the “time after initiating the culture at which resistance to the antibiotic could be detected” value in experiment [1] (higher initial cell concentrations (5×10^2, 5×10^3, 5×10^4 cells)) was in the range of 1 to 6 h; in experiment [2] (setting [4]), 1 to 5 h. Besides, the “time after initiating the culture at which resistance to the antibiotic began showing” value in experiment [1] (lower initial cell concentration (5×10^1 cells)) is on record as “about 7 hrs”; in experiment [2] (setting [5]), “about 6 hrs”.
For `CC1(C)S[C@@H]2[C@H](NC(=O)C(C(=O)O)c3ccccc3)C(=O)N2[C@H]1C(=O)O` (stereo partly drawn) [carbenicillin], the “growth of the strain in the presence of the antibiotic (fluorescence at 590 nm)” value is on record as “slow or no growth” in experiment [1] (same kanamycin and carbenicillin concentrations, 5×10^1 to 5×10^4 cells per reaction, resazurin 20, 40 or 80 μM, 0-7 hrs); “growth” in experiment [3] (setting [6]); “slow or no growth” in experiment [2] (setting [6]). Further, the “time after initiating the culture at which resistance to the antibiotic could be detected” value in experiment [3] (setting [4]) was in the range of 1 to 5 h. Moreover, the “time after initiating the culture at which resistance to the antibiotic began showing” value in experiment [3] (setting [5]) was “about 6 hrs”.
